The values that follow come from patent publication US4071408A, “Neuraminidase” (Research Corporation, priority 1976, dated 1978).

The test system of this test is Arthrobacter sialophilum neuraminidase (NANAase, E.C.3.2.1.18), purified extracellular enzyme. Nature of the test: Neuraminidase kinetics and effector tests (release of N-acetylneuraminic acid, citrate-phosphate buffer pH 6.0, 37° C.). It is filed as biochemical. Here is the method: Neuraminidase and related assays. The activity of enzyme preparations was determined as follows: A reaction mixture containing 40 μmols of citrate-phosphate buffer, pH 6.0, 1.0 mg of Collocalia mucoid and the enzyme fraction in a final volume of 0.50 ml was incubated at 37° C. Aliquots of 0.20 ml were withdrawn at 5 and 10 minutes, and the N-acetylneuraminic acid determined. In all experiments, zero time points were run for each extract. A unit of enzyme activity is defined as that amount which releases 1 μmol of N-acetylneuraminic acid per minute from the mucoid preparation, under conditions of the standard assay given above. Specific activity is expressed as units/mg of protein. Protein was determined with crystalline bovine serum albumin as standard. N-acetylneuraminate pyruvatelyase assays were carried out.
Enzyme characteristics. Enzyme activity increased linearly with concentration up to 0.28 mg/ml protein. The effect of pH on the activity was examined in citrate-phosphate buffer. A pH activity profile with Collocalia mucoid gave a broad optimum around 5-6. The Km values for Collocalia mucoid and N-acetylneuraminlactose were determined from the kinetic data given as inverse plots. […]

Values joined by “and” are separate entries in the source; they are usually repeats but may differ in a detail not shown here. Equal values may be shown once.

N-acetylneuraminlactose: the Km (apparent Km from inverse plots of kinetic data, purified enzyme, read-out: Km for N-acetylneuraminlactose) was ~3.3 mM and 3.3 mM. Take `O=C(O)CN(CCN(CC(=O)O)CC(=O)O)CC(=O)O` [EDTA]: the “effect of EDTA on neuraminidase activity” value (EDTA between 10^-3 M and 10^-2 M, included in the assay mixture or preincubated with the enzyme for 30 min at 37° C.) was “no effect”.
